Two compounds from patent US11938203B2, “Oil-dispersed composition and cosmetics for lip care using the same” (AMOREPACIFIC CORPORATION, priority 2021, dated 2024) can be followed below.

This data set can be described thus: Compatibility between water-soluble effective raw materials and oils. Type of data set: physicochemical. From the text: Compatibility Between Water-Soluble Effective Raw Materials and Oils
Where [1] appears, read: ester oil and silicone-based oil that do not contain a glyceryl group or an isostearyl group.
Setting [2] is: oil: Polyglyceryl-2 Triisostearate.

Take `COc1cc(/C=C/C(=O)Oc2cc(C)ccc2C(C)C)cc(OC)c1OC` [Thymol trimethoxy cinnamate]: the “Compatibility with oil (in words)” value runs as follows: (diisostearyl malate oil (diester-based oil), FIG. 1) “very good compatibility”; under setting [1], “excellent compatibility”; (hydrocarbon oil-based oil or alcohol-based oil) “poor compatibility”; (pentaerythrityl tetraisostearate oil, FIG. 2) “very poor compatibility”. The Compatibility with oil result (oil: Diisostearyl Malate) is listed as “◯”; the Compatibility with oil entry (oil: Diphenylsiloxy Phenyl Trimethicone) was “◯”; the Compatibility with oil result (oil: Isononyl isononanoate) is “◯”; the Compatibility with oil entry (oil: Octyldodecyl neopentanoate) is listed as “◯”; the Compatibility with oil entry under setting [2] is “◯”.
Regarding Ceramides, the “Compatibility with oil (in words)” value under setting [1] is on record as “poor compatibility”. Also, the Compatibility with oil result was “◯” (oil: Diisostearyl Malate) and “◯” under setting [2].
